According to patent US10752647B2, “N-phosphonoxymethyl prodrugs of hydroxyalkyl thiadiazole derivatives” (DAIICHI SANKYO COMPANY, LIMITED, priority 2017, dated 2020):

What was measured:
Type in all cases: in vivo
[1] = Conversion efficiency / PK profile after IV dose in monkeys; conditions: Monkey, plasma, parent compound IV 1 mg/kg; read-out: Parent compound AUCinf
Description: (§1) Method of Testing Conversion Efficiency Determination of conversion efficiency of Compound No. 1 and Compound No. 2 was conducted in rodents (mice and rats) and non-rodents (monkeys and dogs). Animals were divided in two groups with two animals in each group. One group received an intravenous (IV) dose of prodrug and the other group received an IV dose of parent compound. The dose of prodrug was taken as molar equivalent dose of parent compound. Serial blood sampling was carried out at 0.083, 0.33, 1, 2, 4, 8 and 24 h post IV dose from both the animal groups. Blood samples were centrifuged to harvest plasma. Plasma samples were stored at −80° C. until analysis. Plasma samples of prodrug administered animals were simultaneously analyzed for both analytes (prodrug and parent compound) using LC-MS/MS. Area under the curve (AUC) of plasma concentrations versus time profiles were calculated in WinNonlin software and percentage conversion efficiency was determined using the formula: Percentage conversion efficiency=(AUCiv of parent compound (from prodrug administered samples)×100/(AUCiv of parent compound (from parent compound administered samples). PK profile of Compounds No. 1 and No. 2 in rats, dogs and monkeys are depicted in Table 5 and 6, respectively (also shown in FIGS. 1 and 2).

[2] = Conversion efficiency / PK profile after IV dose in dogs; conditions: Dog, plasma, parent compound IV 1 mg/kg; read-out: Parent compound AUCinf
Description: as §1

[3] = Conversion efficiency / PK profile after IV dose in rats (Compounds No. 1 and No. 2); conditions: Rat, plasma, parent compound IV 12.5 mg/kg; read-out: Parent compound AUCinf
Description: as §1

AUC(0-inf) [1]: 6250 ng·h/mL | AUC(0-inf) [2]: 29400 ng·h/mL | AUC(0-inf) [3]: 17700 ng·h/mL
SMILES: CCc1[nH]c(C(=O)N[C@@H]2CCN(c3nnc(C(C)(C)O)s3)C[C@@H]2OC)nc1Cl [Parent compound of Compound No. 1, 4-chloro-5-ethyl-N-{(3S,4R)-1-[5-(1-hydroxy-1-methylethyl)-1,3,4-thiadiazol-2-yl]-3-methoxypiperidin-4-yl}-1H-imidazole-2-carboxamide]
